Test results as given in paper PMC8869242 (Biomedicines, 2022).
Where two headings read alike, the source gives them in different places.

Columns and labels:
MDA-MB-231 cells = experiment: Cell proliferation assay (label-free live cell counting), MDA-MB-231; assay type: cell-based, human
Protocol: The human triple-negative breast cancer cell line MDA-MB-231 (ATCC HTB-26) (absence of estrogen and progesterone receptors, […]) and the non-cancerous breast cell line MCF-12A (ATCC CRL-10782) were purchased from ATCC (Manassas, VA, USA). MDA-MB-231 cells were cultured in DMEM-HG cell growth medium supplemented with 10% (v/v) FBS. MCF-12A cells were cultured in DMEM/F12 medium supplemented with 20 ng/mL hEGF, 100 ng/mL cholera toxin, 0.01 mg/mL bovine insulin, 500 ng/mL hydrocortisone and 5% (v/v) horse serum. Cells were cultured in monolayers in a sterile environment at 37 °C with 5% CO2 humidified atmosphere. Under these conditions, the population doubling time was 25.5 ± 0.9 h and 20.6 ± 3.1 h for MDA-MB-231 and MCF-12A cells, respectively. The cell cultures were routinely screened for mycoplasma contamination, yielding negative results.
Cells were seeded in 96-well microplates at the cell density 1.5 × 10^4 cells/cm^2 (final volume 200 µL/well) and left 24 h to attach. […] Label-free kinetic live monitoring of cell proliferation was performed using LionheartFX automated microscope (BioTek, Winooski, VT, USA) with direct image acquisition of cells in microplates at 0, 24, 48 and 72 h post-addition of the tested compounds. Acquired 4X images were processed using Gen 5 Image Analysis software (BioTek, Winooski, VT, USA) that allows for identification and counting of individual cells per image. The normalized cell growth (%) was calculated using the following formula: C(t) = [(Number of Treated Cells(t) − Number of Treated Cells(0))/(Number of Untreated Cells(t) − Number of Untreated Cells(0))] × 100, where C(t) is the percent of net cell growth over time, Number of Treated Cells(t) is the count of cells treated with drug at each time point, Number of Treated Cells(0) is the count cells treated with drug at time 0 h, Number of Untreated Cells(t) is the count of untreated (control) cells at each time point, Number of Untreated Cells(0) is the count of untreated (control) cells at time 0 h.

MDA-MB-231 breast tumors = experiment: Histology, Ki-67 immunohistochemistry and TUNEL assay of xenograft tumors; assay type: in vivo, mice; conditions: Pd2Spm 5 mg/kg/day, cisplatin 2 mg/kg/day, versus vehicle
Protocol: For the immunohistochemical study, tissue sections were dewaxed and rehydrated. Slides were submitted to […] by immersion in 10% retrieval solution (Dako) and kept in a water bath at 100 °C for 20 min. After blocking of non-specific staining, slides were incubated with primary antibody for Ki-67 (1:50 dilution, clone MIB-1, Dako) overnight at 4 °C. Slides were then stained with Novolink Polymer Detection Systems (Leica Biosystems Inc., Buffalo Grove, IL, USA) following manufacturer’s instructions, counterstained with hematoxylin and permanently mounted. The nuclear Ki-67 staining was analyzed using Fiji’s high-throughput automatic quantitation with Andy’s Algorithm pipeline, as described elsewhere. The immunoreactivity was evaluated, counting at least 600 nuclei/field from 5 representative fields of the lesion at high magnification, avoiding necrotic areas. The ratio of Ki-67 positive nuclei per all counted nuclei was expressed as a percentage (Ki-67 proliferation index).
The paraffin-embedded tumor sections were deparaffinized, rehydrated through a graded series of ethanol and double distilled water and then stained with In Situ Cell Death Detection Kit (Roche Diagnostics GmbH, Mannheim, Germany) as per manufacturer’s instructions. Apoptosis was quantified at single-cell level by counting the number of cells positive for terminal deoxynucleotidyl transferase (TdT) dUTP nick-end labeling (TUNEL-positive cells). Briefly, tumor sections were incubated with 20 µg/mL proteinase K solution (in 10 mM Tris/HCl, pH 7.4–8) for 30 min at 37 °C. Slides were washed and stained with TUNEL reaction mixture (mixture of terminal deoxynucleotidyl transferase with labeled nucleotides) for 60 min at 37 °C in the dark followed by three washes. Slides were mounted with […] Antifade Mounting Medium with DAPI, and coverslips were sealed. At least twenty nonoverlapping high-power microscope fields of each tumor section were captured while avoiding areas with central necrosis. Fluorescence images were acquired using the LionHeart automated microscope at Ex: 520–560 nm and Em: 570–620 nm.

[1] = test system: chicken embryo chorioallantoic membrane (CAM); experiment: In vivo CAM assay (neovascularization); conditions: for CAM early steps of angiogenesis: number of nodes, junctions and segments / CAM later steps of angiogenesis: total length, total branching length and total segment length: 2 to 8 µM
Protocol: The chicken embryo chorioallantoic membrane (CAM) assay was used to study the effect of tested drugs on neovascularization, as described elsewhere. Briefly, fertilized chicken eggs were incubated at 37.5 °C in a humidified atmosphere with agitation. After 3 days of incubation, 2.5 mL of albumen was removed to detach developing CAM from the shell. A window in the eggshell was cut off to expose the embryo, and then, the eggshell was sealed with paraffin. Incubation of fertilized eggs continued until day 9, when the windows were unsealed and four paper disks previously sterilized and pre-treated with hydrocortisone ([…] to avoid inflammatory responses) were placed in direct contact with CAM in each egg (3 PBS-soaked disks and 1 VEGF-soaked (10 ng/mL) disk), and windows were re-sealed with paraffin. […] The remaining two disks were used as negative/vehicle (treated with PBS) and positive (treated with VEGF) controls. The eggs were further incubated two more days, and at […], the disks bound to the CAM were removed, placed in PBS and imaged using a contrast-phase microscope (Motic® AE200 inverted microscope, Spectra Services, VWR International) (with a 4X magnification) coupled to a Moticam 5 digital camera. Images were analyzed using the Angiogenesis Analyzer for Fiji.

[2] = test system: VEGF secretion by MDA-MB-231 cells; experiment: VEGF production, Human VEGF Quantikine ELISA of cell culture medium; assay type: cell-based; conditions: MDA-MB-231, 5–20 µM, 12 h
Protocol: MDA-MB-231 cells were seeded in 96-well microplates at the cell density 1.5 × 10^4 cells/cm^2 (final volume 200 µL/well) and left 24 h to attach. […] VEGF concentration in cell culture medium was determined in undiluted samples in duplicate using the Human VEGF Quantikine ELISA Kit (R&D Systems Inc., Minneapolis, MN, USA) according to the manufacturer’s protocol. In brief, 200 μL of conditioned media was added to a 96-well microplate pre-coated with monoclonal antibody for human VEGF and the plate was incubated for 2 h. After washing with wash buffer, enzyme-linked polyclonal antibody specific for human VEGF was added, followed by incubation for 2 h. The plate was washed to remove unbound antibody-enzyme reagent, substrate solution was added and incubated for 30 min and the reaction was terminated by the addition of the stop solution, producing a yellow solution. The optical density at 450 nm with wavelength correction at 540 nm was measured using a Synergy HT microplate reader (BioTek, Winooski, VT, USA). The concentration of VEGF was interpolated from the standard curve (15.6–1000 pg/mL) prepared in parallel.

[3] = MDA-MB-231, 24 h of incubation, n = 4
[4] = MDA-MB-231, 24 h of incubation, n = 4, read-out: IC50 in µM [95% CI]
[5] = MDA-MB-231, 48 h of incubation, n = 4
[6] = MDA-MB-231, 48 h of incubation, n = 4, read-out: IC50 in µM [95% CI]
[7] = MDA-MB-231, 72 h of incubation, n = 4
[8] = MDA-MB-231, 72 h of incubation, n = 4, read-out: IC50 in µM [95% CI]

SMILES	logIC50 ± SEM (MDA-MB-231 cells; [3])	IC50 (MDA-MB-231 cells; [4])	logIC50 ± SEM (MDA-MB-231 cells; [5])	IC50 (MDA-MB-231 cells; [6])	logIC50 ± SEM (MDA-MB-231 cells; [7])	IC50 (MDA-MB-231 cells; [8])	TUNEL-positive cells in tumors (DNA damage) (MDA-MB-231 breast tumors)	mitotic count in tumors (MDA-MB-231 breast tumors)	CAM early steps of angiogenesis: number of nodes, junctions and segments [1]	CAM later steps of angiogenesis: total length, total branching length and total segment length [1]	VEGF secretion in cell culture medium [2]	IC50 (MDA-MB-231 cells; MDA-MB-231, 24-72 h, read-out: IC50 values (range over incubation times))	Ki-67 index of tumors (MDA-MB-231 breast tumors)	angiogenesis in CAM at single concentration ([1]; 8 µM (4.46 µg/mL))
N.N.[Cl][Pt][Cl] [Cisplatin, cis-dichlorodiammine platinum(II), reference compound]	−5.459 ± 0.036	3.5 µM	−6.005 ± 0.027	1 µM	−6.043 ± 0.020	0.9 µM	significant increase	mitotic count of vehicle-treated animals was significantly increased compared to cisplatin- and Pd2Spm-treated groups	decrease, in a dose-dependent manner	reduced, in a dose-dependent manner	inhibited VEGF secretion in cell culture medium in a dose-dependent manner	–	–	–
NCCCNCCCCNCCCN.[Cl][Pd][Cl].[Cl][Pd][Cl] [Pd2Spm, dinuclear palladium(II)-spermine chelate]	−5.081 ± 0.024	8.3 µM	−5.105 ± 0.022	7.9 µM	−5.137 ± 0.021	7.3 µM	significant increase	mitotic count of vehicle-treated animals was significantly increased compared to cisplatin- and Pd2Spm-treated groups	decrease, in a dose-dependent manner	reduced, in a dose-dependent manner	inhibited VEGF secretion in cell culture medium in a dose-dependent manner	7.3 to 8.3 µM	significantly decreased	significantly inhibited angiogenesis
